Results taken from patent US10174053B2, “2 substituted cephem compounds” (Glaxo Group Limited, priority 2012, dated 2019).
Converted amounts (≈) assume the structure as drawn. Like-named read-outs stand apart in the source and are kept apart here.

Legend:
Test in all cases: In vitro antimicrobial activity, MIC by broth microdilution (CLSI)
Type in all cases: cell-based
[1] = tested on: A. baumannii JMI7; conditions: Acinetobacter baumannii
Procedure: (§1) Compound (I) of the invention was evaluated for in vitro antimicrobial activity thereof.
(§2) Measurement of Minimum Inhibitory Concentration (MIC: μg/mL) was conducted according to CLSI (Clinical and Laboratory Standards Institute) method, and the amount of bacteria for inoculation was 5×10^5 cfu/mL, and cation-adjusted Iso-Sensitest broth containing human Apo-transferrin was used as a test medium, and the experiment was conducted using broth microdilution method. The bacteria used are listed below.

[2] = tested on: K. pneumoniae SR01358; conditions: Klebsiella pneumoniae
Procedure: as §1, §2

[3] = tested on: A. baumannii JMI2346; conditions: Acinetobacter baumannii
Procedure: as §1, §2

[4] = tested on: E. Coli JMI1890; conditions: Escherichia coli, read-out: Minimum Inhibitory Concentration (MIC) E. Coli JMI:1890
Procedure: as §1, §2

[5] = JMI7, PER-1, OXA-23, 51, ESBL and OXA-type carbapenemase producing strain, 5×10^5 cfu/mL, cation-adjusted Iso-Sensitest broth containing human Apo-transferrin, read-out: Minimum Inhibitory Concentration (MIC) A. baumannii JMI:7
[6] = SR01358, KPC-2, ESBL and KPC-type carbapenemase producing strain, 5×10^5 cfu/mL, cation-adjusted Iso-Sensitest broth containing human Apo-transferrin, read-out: Minimum Inhibitory Concentration (MIC) K. pneumoniae SR01358
[7] = JMI2346, OXA-51, TEM, ESBL and OXA-type carbapenemase producing strain, 5×10^5 cfu/mL, cation-adjusted Iso-Sensitest broth containing human Apo-transferrin, read-out: Minimum Inhibitory Concentration (MIC) A. baumannii JMI:2346
[8] = PER-1, TEM-1, ESBL producing strain, 5×10^5 cfu/mL, cation-adjusted Iso-Sensitest broth containing human Apo-transferrin

CC[N+](CC)(CCNC(=O)c1ccc(O)c(O)c1Cl)CC1=C(C(=O)O)N2C(=O)[C@@H](NC(=O)/C(=N\OC(C)(C)C(=O)[O-])c3csc(N)n3)[C@H]2S[C@H]1C [Compound I-37]
MIC [1, 5]: 1 µg/mL (≈ 1.3 µM) | MIC [2, 6]: 0.125 µg/mL (≈ 0.163 µM) | MIC [3, 7]: 4 µg/mL (≈ 5.21 µM) | MIC [4, 8]: 0.5 µg/mL (≈ 0.651 µM)

C[C@@H]1S[C@@H]2[C@H](NC(=O)/C(=N\OC(C)(C)C(=O)[O-])c3csc(N)n3)C(=O)N2C(C(=O)O)=C1C[N@+]1(C)[C@@H]2CC[C@H]1C[C@@H](N1C(=O)c3ccc(O)c(O)c3C1=O)C2 [Compound I-38]
MIC ([1]; JMI7, read-out: Minimum Inhibitory Concentration (MIC) A. baumannii JMI:7): 0.25 µg/mL (≈ 0.319 µM) | MIC ([2]; SR01358, read-out: Minimum Inhibitory Concentration (MIC) K. pneumoniae SR01358): 0.063 µg/mL (≈ 0.0804 µM) | MIC ([3]; JMI2346, read-out: Minimum Inhibitory Concentration (MIC) A. baumannii JMI:2346): 0.5 µg/mL (≈ 0.638 µM) | MIC [4]: 0.25 µg/mL (≈ 0.319 µM)

C[C@@H]1S[C@@H]2[C@H](NC(=O)/C(=N\OC(C)(C)C(=O)[O-])c3csc(N)n3)C(=O)N2C(C(=O)O)=C1C[N+]12CCC(CN3C(=O)c4ccc(O)c(O)c4C3=O)(CC1)CC2 [Compound I-39]
MIC [1, 5]: 0.125 µg/mL (≈ 0.159 µM) | MIC [2, 6]: 0.063 µg/mL (≈ 0.0804 µM) | MIC [3, 7]: 1 µg/mL (≈ 1.28 µM) | MIC [4, 8]: 0.25 µg/mL (≈ 0.319 µM)

C[C@@H]1S[C@@H]2[C@H](NC(=O)/C(=N\OC(C)(C)C(=O)[O-])c3csc(N)n3)C(=O)N2C(C(=O)O)=C1C[N+]12CCC(CNC(=O)c3ccc(O)c(O)c3Cl)(CC1)CC2 [Compound I-40]
MIC [1, 5]: 1 µg/mL (≈ 1.26 µM) | MIC [2, 6]: 0.063 µg/mL (≈ 0.0795 µM) | MIC [3, 7]: 4 µg/mL (≈ 5.05 µM) | MIC [4, 8]: 0.5 µg/mL (≈ 0.631 µM)

C[C@@H]1S[C@@H]2[C@H](NC(=O)/C(=N\OC(C)(C)C(=O)[O-])c3csc(N)n3)C(=O)N2C(C(=O)O)=C1C[N@+]12CCC[C@H]1CN(C(=O)c1ccc(O)c(O)c1Cl)CC2 [Compound I-41]
MIC [1, 5]: 1 µg/mL (≈ 1.28 µM) | MIC [2, 6]: 0.063 µg/mL (≈ 0.0809 µM) | MIC [3, 7]: 4 µg/mL (≈ 5.14 µM) | MIC [4, 8]: 1 µg/mL (≈ 1.28 µM)

C[C@@H]1S[C@@H]2[C@H](NC(=O)/C(=N\OC(C)(C)C(=O)[O-])c3csc(N)n3)C(=O)N2C(C(=O)O)=C1C[N+]1(CCN2C(=O)c3ccc(O)c(O)c3C2=O)CCCCC1 [Compound I-42]
MIC [1, 5]: 0.5 µg/mL (≈ 0.648 µM) | MIC [2, 6]: 0.063 µg/mL (≈ 0.0816 µM) | MIC [3, 7]: 2 µg/mL (≈ 2.59 µM) | MIC [4, 8]: 0.5 µg/mL (≈ 0.648 µM)

C[C@@H]1S[C@@H]2[C@H](NC(=O)/C(=N\OC(C)(C)C(=O)[O-])c3csc(N)n3)C(=O)N2C(C(=O)O)=C1C[N+]1(CCNC(=O)c2ccc(O)c(O)c2Cl)CCCCC1 [Compound I-43]
MIC [1, 5]: 1 µg/mL (≈ 1.28 µM) | MIC [2, 6]: 0.063 µg/mL (≈ 0.0807 µM) | MIC [3, 7]: 4 µg/mL (≈ 5.13 µM) | MIC [4, 8]: 0.5 µg/mL (≈ 0.641 µM)

C[C@@H]1S[C@@H]2[C@H](NC(=O)/C(=N\OC(C)(C)C(=O)[O-])c3csc(N)n3)C(=O)N2C(C(=O)O)=C1C[N+]1(CCN2C(=O)c3ccc(O)c(O)c3C2=O)CCCC1 [Compound I-51]
MIC [1, 5]: 2 µg/mL (≈ 2.64 µM) | MIC [2, 6]: 0.125 µg/mL (≈ 0.165 µM) | MIC [3, 7]: 8 µg/mL (≈ 10.6 µM) | MIC [4, 8]: 0.5 µg/mL (≈ 0.66 µM)

C[C@@H]1S[C@@H]2[C@H](NC(=O)/C(=N\OC(C)(C)C(=O)[O-])c3csc(N)n3)C(=O)N2C(C(=O)O)=C1C[N+]1(CCNC(=O)c2ccc(O)c(O)c2Cl)CCCC1 [Compound I-52]
MIC [1, 5]: 1 µg/mL (≈ 1.31 µM) | MIC [2, 6]: ≤ 0.031 µg/mL | MIC [3, 7]: 4 µg/mL (≈ 5.22 µM) | MIC [4, 8]: 0.25 µg/mL (≈ 0.326 µM)

C[C@H]1S[C@@H]2[C@H](NC(=O)/C(=N\OC(C)(C)C(=O)[O-])c3csc(N)n3)C(=O)N2C(C(=O)O)=C1C[N+]1(CCNC(=O)c2ccc(O)c(O)c2Cl)CCCC1 [Compound I-53]
MIC [1, 5]: 2 µg/mL (≈ 2.61 µM) | MIC [2, 6]: 0.25 µg/mL (≈ 0.326 µM) | MIC [3, 7]: 4 µg/mL (≈ 5.22 µM) | MIC [4, 8]: 0.25 µg/mL (≈ 0.326 µM)

C[C@@H]1S[C@@H]2[C@H](NC(=O)/C(=N\OC(C)(C)C(=O)[O-])c3csc(N)n3)C(=O)N2C(C(=O)O)=C1C[N@+]1(C)[C@@H]2CC[C@H]1C[C@@H](NC(=O)c1ccc(O)c(O)c1Cl)C2 [Compound I-54]
MIC [1, 5]: 0.5 µg/mL (≈ 0.631 µM) | MIC [2, 6]: ≤ 0.031 µg/mL | MIC [3, 7]: 1 µg/mL (≈ 1.26 µM) | MIC [4, 8]: 0.125 µg/mL (≈ 0.158 µM)

C[C@@H]1S[C@@H]2[C@H](NC(=O)/C(=N\OC(C)(C)C(=O)[O-])c3csc(N)n3)C(=O)N2C(C(=O)[O-])=C1C[N+]12CCC(CNC(=O)c3cc(O)c(O)c(Cl)c3)(CC1)CC2.[Na+] [Compound I-60]
MIC [1, 5]: 1 µg/mL | MIC [2, 6]: ≤ 0.031 µg/mL | MIC [3, 7]: 4 µg/mL | MIC [4, 8]: 1 µg/mL

C[C@@H]1S[C@@H]2[C@H](NC(=O)/C(=N\OC(C)(C)C(=O)[O-])c3csc(N)n3)C(=O)N2C(C(=O)[O-])=C1C[N+]1(CCNC(=O)c2cc(O)c(O)c(Cl)c2)CCCC1.[Na+] [Compound I-61]
MIC [1, 5]: 2 µg/mL | MIC [2, 6]: 0.063 µg/mL | MIC [3, 7]: 16 µg/mL | MIC [4, 8]: 2 µg/mL

C[C@@H]1S[C@@H]2[C@H](NC(=O)/C(=N\OC(C)(C)C(=O)[O-])c3csc(N)n3)C(=O)N2C(C(=O)[O-])=C1C[N+]12CCC(CC1)N(C(=O)c1ccc(O)c(O)c1Cl)CC2.[Na+] [Compound I-62]
MIC [1, 5]: 0.5 µg/mL | MIC [2, 6]: ≤ 0.031 µg/mL | MIC [3, 7]: 2 µg/mL | MIC [4, 8]: 0.063 µg/mL

C[C@@H]1S[C@@H]2[C@H](NC(=O)/C(=N\OC(C)(C)C(=O)[O-])c3csc(N)n3)C(=O)N2C(C(=O)[O-])=C1C[N+]12CCC[C@H]1CN(C(=O)c1cc(O)c(O)c(Cl)c1)CC2.[Na+] (some centres unmarked) [Compound I-64]
MIC [1, 5]: 2 µg/mL | MIC [2, 6]: ≤ 0.031 µg/mL | MIC [3, 7]: 4 µg/mL | MIC [4, 8]: 0.125 µg/mL

C[C@@H]1S[C@@H]2[C@H](NC(=O)/C(=N\OC(C)(C)C(=O)[O-])c3csc(N)n3)C(=O)N2C(C(=O)[O-])=C1C[N+]12CCC(CC1)N(C(=O)c1cc(O)c(O)c(Cl)c1)CC2.[Na+] [Compound I-65]
MIC [1, 5]: 0.5 µg/mL | MIC [2, 6]: ≤ 0.031 µg/mL | MIC [3, 7]: 2 µg/mL | MIC [4, 8]: 0.125 µg/mL

C[C@@H]1S[C@@H]2[C@H](NC(=O)/C(=N\OC(C)(C)C(=O)[O-])c3csc(N)n3)C(=O)N2C(C(=O)[O-])=C1C[N+]1(C)[C@@H]2CC[C@H]1C[C@@H](NC(=O)c1cc(O)c(O)c(Cl)c1)C2.[Na+] (some centres unmarked) [Compound I-66]
MIC [1, 5]: 0.25 µg/mL | MIC [2, 6]: ≤ 0.031 µg/mL | MIC [3, 7]: 1 µg/mL | MIC [4, 8]: 0.063 µg/mL

C[C@@H]1S[C@@H]2[C@H](NC(=O)/C(=N\OC(C)(C)C(=O)[O-])c3csc(N)n3)C(=O)N2C(C(=O)[O-])=C1C[N+]12CCC(CC1)N(C(=O)c1cc(O)c(O)c(F)c1)CC2.[Na+] [Compound I-67]
MIC [1, 5]: 1 µg/mL | MIC [2, 6]: ≤ 0.031 µg/mL | MIC [3, 7]: 2 µg/mL | MIC [4, 8]: 0.25 µg/mL

C[C@@H]1S[C@@H]2[C@H](NC(=O)/C(=N\OC(C)(C)C(=O)[O-])c3csc(N)n3)C(=O)N2C(C(=O)[O-])=C1C[N+]12CCC[C@H]1CN(C(=O)c1cc(O)c(O)c(F)c1)CC2.[Na+] (some centres unmarked) [Compound I-68]
MIC [1, 5]: 2 µg/mL | MIC [2, 6]: ≤ 0.031 µg/mL | MIC [3, 7]: 8 µg/mL | MIC [4, 8]: 0.5 µg/mL

C[C@@H]1S[C@@H]2[C@H](NC(=O)/C(=N\OC(C)(C)C(=O)[O-])c3csc(N)n3)C(=O)N2C(C(=O)[O-])=C1C[N+]1(C)C[C@H]2CN(C(=O)c3cc(O)c(O)c(F)c3)C[C@H]2C1.[Na+] (some centres unmarked) [Compound I-69]
MIC [1, 5]: 1 µg/mL | MIC [2, 6]: ≤ 0.031 µg/mL | MIC [3, 7]: 8 µg/mL | MIC [4, 8]: 0.25 µg/mL

C[C@@H]1S[C@@H]2[C@H](NC(=O)/C(=N\OC(C)(C)C(=O)[O-])c3csc(N)n3)C(=O)N2C(C(=O)[O-])=C1C[N+]1(C)[C@@H]2CC[C@H]1C[C@@H](NC(=O)c1cc(O)c(O)c(F)c1)C2.[Na+] (some centres unmarked) [Compound I-71]
MIC [1, 5]: 0.5 µg/mL | MIC [2, 6]: ≤ 0.031 µg/mL | MIC [3, 7]: 2 µg/mL | MIC [4, 8]: 0.25 µg/mL

C[C@@H]1S[C@@H]2[C@H](NC(=O)/C(=N\OC(C)(C)C(=O)[O-])c3csc(N)n3)C(=O)N2C(C(=O)[O-])=C1C[N+]12CCC(CNC(=O)c3cc(O)c(O)c(F)c3)(CC1)CC2.[Na+] [Compound I-72]
MIC [1, 5]: 1 µg/mL | MIC [2, 6]: ≤ 0.031 µg/mL | MIC [3, 7]: 4 µg/mL | MIC [4, 8]: 0.125 µg/mL

C[C@@H]1S[C@@H]2[C@H](NC(=O)/C(=N\OC(C)(C)C(=O)[O-])c3csc(N)n3)C(=O)N2C(C(=O)[O-])=C1C[N+]12CCC(CN3C(=O)c4cc(O)c(O)cc4C3=O)(CC1)CC2.[Na+] [Compound I-73]
MIC [1, 5]: 0.25 µg/mL | MIC [2, 6]: ≤ 0.031 µg/mL | MIC [3, 7]: 2 µg/mL | MIC [4, 8]: 0.063 µg/mL
